The values below come from patent publication US4551534A, “Aralkyl or aryloxyalkyl 1,7-naphthyridine-3-carboxylic acid esters” (American Home Products Corporation, priority 1984, dated 1985).

Series [1] in a line: Cardiac depressant (negative inotropic) effects in isolated paced intact rabbit atria. The conditions noted are these: isolated paced atria, 10^-5 M, read-out: inhibition (of developed isometric force) at the highest concentration. The procedure: (§1) The potential for detrimental cardiac depressant (negative inotropic) effects of the compounds of this invention was assessed in isolated paced intact rabbit atria. […] Muscles (N=5-9/compound) were stimulated at a frequency of 3 Hz with a WPI stimulator for a 60 minute equilibration period. Changes in isometric force were recorded as described for the aortic smooth muscle experiments,supra. […]

Series [2] has as its system isolated paced intact rabbit atria. The series is described as above. The conditions noted are these: 3 Hz, 30° C., cumulative 10^-9 M to 10^-5 M. The procedure: as §1
Series [3] concerns rabbit aortic smooth muscle. Briefly: Ca+2 antagonism: relaxation of KCl-depolarized rabbit aortic smooth muscle strips. The conditions noted are these: Oryctolagus cuniculus, 20 min; 10^-5 M; 100 mM KCl contraction; mean of two experiments 20 minutes after addition; read-out: percent relaxation (P.R.). The procedure:
The composition of PSS was as follows (mM): NaCl 112, KCl 5, NaHCO3 25, KH2 PO4 1, MgSO4 1.2, CaCL2 2.5, dextrose 10. The lower end of each tissue strip was attached to a fixed post and the upper end to a Statham UC-4 transducer. Changes in force development were recorded on a Beckman Dynograph Polygraphic Recorder.
Following equilibration, the muscles were contracted in a depolarizing solution of PSS in which 100 mM KCl was substituted for an equimolar concentration of NaCl. Following attainment of steady-state isometric force (20 min.), the test compound was added to afford a final concentration of 1×10^-5 M. The inhibitory effect, expressed as percent relaxation, was determined from the mean of two experiments twenty minutes after the addition of the compound being tested.
(§2) The following examples illustrate the preparation of a representative number of compounds of this invention. After each example, the Ca^+2 antagonist activity of the compound is presented in terms of percent relaxation (P.R.) at 10^-5 M concentration unless indicated otherwise. Similarly, the antihypertensive activity is reported in terms of millimeters mercury (mmHg) blood pressure (B.P.) reduction at the stated time post 50 mg/kg oral dosing or other dosing as indicated.

Series [4] relates to spontaneously hypertensive rats. Kind of series: Hypotensive in vivo effect: systolic blood pressure of spontaneously hypertensive rats. The following applies: 50 mg/kg oral, group of 4 spontaneously hypertensive rats. Further details: species or system rat. The procedure:
The hypotensive in vivo effect of the compounds of this invention was determined by measuring changes in the systolic blood pressure of spontaneously hypertensive rats with a Decker Caudal Plethysmograph. The compound being tested was administered to a group of 4 rats and their systolic pressure was determined prior to and at 1.5 and 4 hours after compound administration. Initial testing was done by oral administration of the compound at a dose of 50 mg/kg body weight. Results (mmHg) are expressed as decreases in systolic blood pressure.
as §2

Series [5] shares this test system. The series is described as above. Further details: species or system rat. The following applies: 50 mg/kg oral.

Regarding `NCCCCCCNS(=O)(=O)c1cccc2c(Cl)cccc12` [Example W-7, reference compound], the inhibition at 10 µM in series [1] was less than 20%.

Regarding `COc1ccc(CCN(C)CCCC(C#N)(c2ccc(OC)c(OC)c2)C(C)C)cc1OC` (stereo not shown) [Verapamil, reference compound], the “IC25 (concentration which produces 25% inhibition of isometric force)” value in series [2] came out at 0.06 µM.

Take `COC(=O)C1=C(C)NC2=C(C(=O)CN(CC(O)COc3cccc(C)c3C)C2)C1c1cccc(Cl)c1Cl` (stereo not shown) [Example 8, 4-(2,3-Dichlorophenyl)-7-[3-(2,3-dimethylphenoxy)-2-hydroxypropyl]-1,4,5,6,7,8-hexahydro-2-methyl-5-oxo-1,7-naphthyridine-3-carboxylic acid methyl ester]: the inhibition at 10 µM in series [3] amounted to 50%. In series [4], the “blood pressure (B.P.) reduction at 1.5 hours” value is given as -16 mmHg and the “blood pressure (B.P.) reduction at 4 hours” value was -41 mmHg. The “IC25 (concentration which produces 25% inhibition of isometric force)” value in series [2] turned out to be 7 µM.

In the case of `COC(=O)C1=C(C)NC2=C(C(=O)CN(CC(O)COc3cccc(C)c3C)C2)C1c1c(F)ccc(Cl)c1Cl` (stereo not shown) [Example 4, 4-(2,3-Dichloro-6-fluorophenyl)-7-[3-(2,3-dimethylphenoxy)-2-hydroxypropyl]1,4,5,6,7,8-hexahydro-2-methyl-5-oxo-1,7-naphthyridine-3-carboxylic acid methyl ester], the inhibition at 10 µM in series [3] was 42%. In addition, in series [4], the “blood pressure (B.P.) reduction at 1.5 hours” value is -56 mmHg and the “blood pressure (B.P.) reduction at 4 hours” value is given as -72 mmHg. For the same compound, in series [2], the “IC25 (concentration which produces 25% inhibition of isometric force)” value is greater than 10 µM.

In the case of `COC(=O)C1=C(C)NC2=C(C(=O)CN(CC(O)CCc3ccccc3)C2)C1c1c(F)c(F)c(F)c(F)c1F` (stereo not shown) [Example 10, 1,4,5,6,7,8-Hexahydro-7-(2-hydroxy-4-phenylbutyl)-2-methyl-5-oxo-4-(pentafluorophenyl)-1,7-naphthyridine-3-carboxylic acid methyl ester], the inhibition at 10 µM in series [3] worked out at 80.5%. In series [4], the “blood pressure (B.P.) reduction at 1.5 hours” value is -41 mmHg and the “blood pressure (B.P.) reduction at 4 hours” value is -51 mmHg. The “IC25 (concentration which produces 25% inhibition of isometric force)” value in series [2] is 3 µM.

For the compound `COC(=O)C1=C(C)NC2=C(C(=O)CN(CC(O)COc3cccc(C)c3C)C2)C1c1c(F)c(F)c(F)c(F)c1F` (stereo not shown) [Example 2, 7-[3-(2,3-Dimethylphenoxy)-2-hydroxypropyl]-1,4,5,6,7,8-hexahydro-2-methyl-5-oxo-4-(pentafluorophenyl)-1,7-naphthyridine-3-carboxylic acid methyl ester], in series [3], the inhibition at 10 µM came to 65%. Also, in series [4], the “blood pressure (B.P.) reduction at 1.5 hours” value was -56 mmHg and the “blood pressure (B.P.) reduction at 4 hours” value is given as -86 mmHg. Moreover, the “IC25 (concentration which produces 25% inhibition of isometric force)” value in series [2] turned out to be 5 µM. In addition, the “blood pressure (B.P.) reduction at 24 hours” value in series [5] is -28 mmHg.

For the compound `COC(=O)C1=C(C)NC(C)=C(C(=O)OC)C1c1ccccc1[N+](=O)[O-]` [nifedipine, reference compound], the “IC25 (concentration which produces 25% inhibition of isometric force)” value in series [2] was found to be 0.05 µM.

Turning to `CCOC(=O)C1=C(C)NC(C)=C(C(=O)OC)C1c1cccc([N+](=O)[O-])c1` (stereo not shown) [nitrendipine, reference compound], the “IC25 (concentration which produces 25% inhibition of isometric force)” value in series [2] came to 0.35 µM.

Consider `COC(=O)C1=C(C)NC2=C(C(=O)CN(CC(O)COc3cccc(Cl)c3Cl)C2)C1c1ccccc1C` (stereo not shown) [Example 5, 7-[3-(2,3-Dichlorophenoxy)-2-hydroxypropyl]-1,4,5,6,7,8-hexahydro-2-methyl-4-(2-methylphenyl)-5-oxo-1,7-naphthyridine-3-carboxylic acid methyl ester], for which the inhibition at 10 µM in series [3] came out at 62%. In addition, in series [4], the “blood pressure (B.P.) reduction at 1.5 hours” value is listed as -23 mmHg and the “blood pressure (B.P.) reduction at 4 hours” value is given as -25 mmHg. Besides, the “IC25 (concentration which produces 25% inhibition of isometric force)” value in series [2] is greater than 10 µM.

Consider `COC(=O)C1=C(C)NC2=C(C(=O)CN(CC(O)c3ccccc3)C2)C1c1c(F)c(F)c(F)c(F)c1F` (stereo not shown) [Example 11, 1,4,5,6,7,8-Hexahydro-7-(2-hydroxy-2-phenylethyl)-2-methyl-5-oxo-4-pentafluorophenyl-1,7-naphthyridine-3-carboxylic acid methyl ester], for which, in series [3], the inhibition at 10 µM amounted to 66.5%. In series [4], the “blood pressure (B.P.) reduction at 1.5 hours” value is listed as -58 mmHg and the “blood pressure (B.P.) reduction at 4 hours” value is -73 mmHg.

Consider `COC(=O)C1=C(C)NC2=C(C(=O)CN(CC(O)COc3ccccc3)C2)C1c1c(F)c(F)c(F)c(F)c1F` (stereo not shown) [Example 6, 1,4,5,6,7,8-Hexahydro-2-methyl-5-oxo-4-(pentafluorophenyl)-7-(3-phenoxy-2-hydroxypropyl)-1,7-naphthyridine-3-carboxylic acid methyl ester], for which, in series [3], the inhibition at 10 µM is 67%. Further, in series [4], the “blood pressure (B.P.) reduction at 1.5 hours” value is on record as -54 mmHg and the “blood pressure (B.P.) reduction at 4 hours” value is -80 mmHg. The “IC25 (concentration which produces 25% inhibition of isometric force)” value in series [2] was found to be 4.5 µM.

Regarding `COC(=O)C1=C(C)NC2=C(C(=O)CN(CC(O)COc3cccc(C)c3C)C2)C1c1c(F)c(F)cc(F)c1F` (stereo not shown) [Example 3], the inhibition at 10 µM in series [3] was found to be 63%. In series [4], the “blood pressure (B.P.) reduction at 1.5 hours” value is on record as -25 mmHg and the “blood pressure (B.P.) reduction at 4 hours” value is -56 mmHg. For the same compound, the “IC25 (concentration which produces 25% inhibition of isometric force)” value in series [2] was 6 µM.

With `COC(=O)C1=C(C)NC2=C(C(=O)CN(CC(O)COc3ccc(OC)cc3)C2)C1c1c(F)c(F)c(F)c(F)c1F` (stereo not shown) [Example 7, 1,4,5,6,7,8-Hexahydro-7-[3-(4-methoxyphenoxy)-2-hydroxypropyl]-2-methyl-5-oxo-4-(pentafluorophenyl)-1,7-naphthyridine-3-carboxylic acid methyl ester], the inhibition at 10 µM in series [3] was determined as 73%. Moreover, in series [4], the “blood pressure (B.P.) reduction at 1.5 hours” value is on record as -31 mmHg and the “blood pressure (B.P.) reduction at 4 hours” value is recorded as -56 mmHg. Further, the “IC25 (concentration which produces 25% inhibition of isometric force)” value in series [2] came out at 5 µM.

`COC(=O)C1=C(C)NC2=C(C(=O)CN(CCCOc3ccccc3)C2)C1c1c(F)c(F)c(F)c(F)c1F` (stereo not shown) [Example 9, 1,4,5,6,7,8-Hexahydro-2-methyl-5-oxo-4-(pentafluorophenyl)-7-(3-phenoxypropyl)-1,7-naphthyridine-3-carboxylic acid methyl ester]: the inhibition at 10 µM in series [3] worked out at 61%. In series [4], the “blood pressure (B.P.) reduction at 1.5 hours” value was -43 mmHg and the “blood pressure (B.P.) reduction at 4 hours” value was -41 mmHg. The “IC25 (concentration which produces 25% inhibition of isometric force)” value in series [2] was 3.5 µM.

For `CCOC(=O)C1=C(C)NC(C)=C(C(=O)OC)C1c1cccc(Cl)c1Cl` (stereo not shown) [felodipine, reference compound], the “IC25 (concentration which produces 25% inhibition of isometric force)” value in series [2] was found to be 0.8 µM.

With `COC(=O)C1=C(C)NC2=C(C(=O)CN(CC(O)COc3cccc(C)c3C)C2)C1c1ccccc1C` (stereo not shown) [Example 1, 7-[3-(2,3-Dimethylphenoxy)-2-hydroxypropyl]-1,4,5,6,7,8-hexahydro-2-methyl-4-(2-methylphenyl)-5-oxo-1,7-naphthyridine-3-carboxylic acid methyl ester], the inhibition at 10 µM in series [3] is 91%. In addition, in series [4], the “blood pressure (B.P.) reduction at 1.5 hours” value is -30 mmHg and the “blood pressure (B.P.) reduction at 4 hours” value is -34 mmHg. For the same compound, the “IC25 (concentration which produces 25% inhibition of isometric force)” value in series [2] was greater than 10 µM.
